# Measurements taken from patent publication US8563553B2, “Compounds and compositions as protein kinase inhibitors” (Novartis AG, priority 2009, dated 2013).
# Target: b-Raf(V600E) (Homo sapiens (Human), UniProt P15056, V600E)
# Test: Raf/Mek Amplified Luminescence Proximity Homogeneous Assay (Alpha Screen)
# Type: biochemical
# Settings: b-Raf(V600E) approximately 4 pM; biotinylated Mek, kinase dead approximately 10 nM; ATP 10 μM; pre-incubation 60 minutes; reaction 3 hours at room temperature; read-out: mut-B-RAF IC50
# Summary of the method: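 Raf pre-incubated with compound and kinase-dead biotinylated Mek (~10 nM) for 60 min, room temperature, in 50 mM Tris pH 7.5, 15 mM MgCl2, 0.01% BSA, 1 mM DTT; ATP-started reaction 1 or 3 h, EDTA stop. Phospho-MEK detected by anti-p-MEK1/2 AlphaScreen; IC50 by non-linear regression.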
# Chain of b-Raf(V600E) (P15056 whole entry V600E): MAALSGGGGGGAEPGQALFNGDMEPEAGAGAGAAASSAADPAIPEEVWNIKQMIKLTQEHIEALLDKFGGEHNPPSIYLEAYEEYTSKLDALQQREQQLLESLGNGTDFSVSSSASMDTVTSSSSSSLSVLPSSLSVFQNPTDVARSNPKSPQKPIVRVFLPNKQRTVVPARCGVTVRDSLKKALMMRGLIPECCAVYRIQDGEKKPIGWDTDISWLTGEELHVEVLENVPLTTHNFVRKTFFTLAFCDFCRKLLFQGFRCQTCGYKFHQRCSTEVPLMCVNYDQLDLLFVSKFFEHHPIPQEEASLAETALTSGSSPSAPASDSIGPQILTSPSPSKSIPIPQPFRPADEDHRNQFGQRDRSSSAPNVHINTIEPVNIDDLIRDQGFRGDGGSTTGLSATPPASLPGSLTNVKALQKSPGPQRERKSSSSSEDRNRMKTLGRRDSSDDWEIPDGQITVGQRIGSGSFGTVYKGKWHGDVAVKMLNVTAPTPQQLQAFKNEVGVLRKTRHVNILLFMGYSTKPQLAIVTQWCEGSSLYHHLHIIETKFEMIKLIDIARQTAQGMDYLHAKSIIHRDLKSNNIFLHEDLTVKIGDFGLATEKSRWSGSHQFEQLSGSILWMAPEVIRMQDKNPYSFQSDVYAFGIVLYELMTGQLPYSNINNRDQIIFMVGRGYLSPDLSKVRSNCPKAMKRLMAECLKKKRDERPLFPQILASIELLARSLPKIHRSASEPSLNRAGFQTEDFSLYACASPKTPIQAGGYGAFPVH
row,SMILES,IC50
1,"CCCNc1nccc(-c2[nH]c(C3CC3)nc2-c2cc(F)cc(NS(=O)(=O)CCC)c2Cl)n1 [Example 1AN, N-(2-Chloro-3-(2-cyclopropyl-5-(2-(propylamino)pyrimidin-4-yl)-1H-imidazol-4-yl)-5-fluorophenyl)propane-1-sulfonamide]",0.39 nM
2,"COC(=O)N[C@@H](C)CNc1nccc(-c2[nH]c(C3CC3)nc2-c2c(F)ccc(NS(C)(=O)=O)c2Cl)n1 [Example 2F, Methyl (2S)-1-(4-(4-(2-chloro-6-fluoro-3-(methylsulfonamido)phenyl)-2-cyclopropyl-1H-imidazol-5-yl)pyrimidin-2-ylamino)propan-2-ylcarbamate]",5 nM
3,"C[C@H](O)CNc1nccc(-c2[nH]c(C3CC3)nc2-c2cccc(NS(C)(=O)=O)c2F)n1 [Example 3B, (S)—N-(3-(2-cyclopropyl-5-(2-(2-hydroxypropylamino)pyrimidin-4-yl)-1H-imidazol-4-yl)-2-fluorophenyl)methanesulfonamide]",28 nM
4,"CC1(c2nc(-c3cccc(NS(C)(=O)=O)c3Cl)c(-c3ccnc(NCCC#N)n3)[nH]2)CC1 [Example 1BC, N-(2-Chloro-3-(5-(2-(2-cyanoethylamino)pyrimidin-4-yl)-2-(1-methylcyclopropyl)-1H-imidazol-4-yl)phenyl)methanesulfonamide]",1 nM
5,"CC(C)CNc1nccc(-c2[nH]c(C3CC3)nc2-c2cc(F)cc(NS(C)(=O)=O)c2Cl)n1 [Example 1AR, N-(2-Chloro-3-(2-cyclopropyl-5-(2-(isobutylamino)pyrimidin-4-yl)-1H-imidazol-4-yl)-5-fluorophenyl)methanesulfonamide]",5 nM
6,"COC(=O)N[C@@H](C)CNc1nccc(-c2[nH]c(C3CC3)nc2-c2cc(C)cc(NS(C)(=O)=O)c2Cl)n1 [Example 1AB, (S)-Methyl 1-(4-(4-(2-chloro-5-methyl-3-(methylsulfonamido)phenyl)-2-cyclopropyl-1H-imidazol-5-yl)pyrimidin-2-ylamino)propan-2-ylcarbamate]",1.1 nM
7,"CCCS(=O)(=O)Nc1cc(F)cc(-c2nc(C3CC3)[nH]c2-c2ccnc(NCC)n2)c1Cl [Example 1AS, N-(2-Chloro-3-(2-cyclopropyl-5-(2-(ethylamino)pyrimidin-4-yl)-1H-imidazol-4-yl)-5-fluorophenyl)propane-1-sulfonamide]",1 nM

# Stronger by IC50, values ahead:
row,IC50,SMILES
1,0.25 nM,"COC(=O)N[C@@H](C)CNc1nccc(-c2[nH]c(C3CC3)nc2-c2cc(C)cc(NS(=O)(=O)CC(F)(F)F)c2F)n1 [Example 1BO, (S)-Methyl 1-(4-(2-cyclopropyl-4-(2-fluoro-5-methyl-3-(2,2,2-trifluoroethylsulfonamido)phenyl)-1H-imidazol-5-yl)pyrimidin-2-ylamino)propan-2-ylcarbamate]"
2,0.26 nM,"CC(C)(C)c1nc(-c2cc(F)cc(NS(=O)(=O)c3c(F)cccc3F)c2Cl)c(-c2ccnc(N)n2)[nH]1 [Example 1BP, N-(3-(5-(2-Aminopyrimidin-4-yl)-2-tert-butyl-1H-imidazol-4-yl)-2-chloro-5-fluorophenyl)-2,6-difluorobenzenesulfonamide]"
3,0.11 nM,"CCCS(=O)(=O)Nc1cc(F)cc(-c2nc(C3CC3)[nH]c2-c2ccnc(NC)n2)c1Cl [Example 1BX, N-(2-Chloro-3-(2-cyclopropyl-5-(2-(methylamino)pyrimidin-4-yl)-1H-imidazol-4-yl)-5-fluorophenyl)propane-1-sulfonamide]"
4,0.3 nM,"COC(=O)N[C@@H](C)CNc1nccc(-c2[nH]c(C3CC3)nc2-c2cc(F)cc(NS(=O)(=O)C3CC3)c2Cl)n1 [Example 1AE, (S)-Methyl 1-(4-(4-(2-chloro-3-(cyclopropanesulfonamido)-5-fluorophenyl)-2-cyclopropyl-1H-imidazol-5-yl)pyrimidin-2-ylamino)propan-2-ylcarbamate]"
5,0.19 nM,"Nc1nccc(-c2[nH]c(C3CC3)nc2-c2cc(F)cc(NS(=O)(=O)c3c(F)cccc3F)c2Cl)n1 [Example 1BR, N-(3-(5-(2-Aminopyrimidin-4-yl)-2-cyclopropyl-1H-imidazol-4-yl)-2-chloro-5-fluorophenyl)-2,6-difluorobenzenesulfonamide]"
